# Laboratory results reported in EPA's ToxRefDB 2.
# How the values were obtained:
# rat [1] = conditions: Combined chronic toxicity/carcinogenicity, sprague dawley, Oral, Feed, dose end: 104 week, group: systemic
# mouse [2] = conditions: Subchronic oral toxicity in rodents, cd1, Feed, dose end: 13 week, group: systemic
# dog [3] = conditions: Subchronic oral toxicity in nonrodent, beagle, Capsule, dose end: 13 week, group: systemic
# rat [4] = conditions: Prenatal developmental toxicity study, sprague dawley, Oral, Gavage/Intubation, dose end: 15 GD
# mouse [5] = conditions: Carcinogenicity, cd1, Oral, Feed, dose end: 78 week, group: systemic
# dog [6] = conditions: Chronic toxicity; beagle; Oral; Capsule; dose end: 1 year; group: systemic; systemic / in life observation / body weight / body weight gain + systemic / in life observation / clinical signs / emesis + systemic / in …
# dog [7] = conditions: Chronic toxicity; beagle; Oral; Capsule; dose end: 1 year; group: systemic; systemic / in life observation / body weight / body weight gain + systemic / in life observation / clinical signs / emesis + systemic / in …; remark: listed apart in the source
# rabbit = conditions: Prenatal developmental toxicity study, himalayan, Dermal, Topical, dose end: 19 GD
# rat [8] = conditions: Multigenerational reproductive toxicity study, sprague dawley, Oral, Feed, dose end: 2 generation
# rat [9] = conditions: Subchronic oral toxicity in rodents, other, Feed, dose end: 13 week
# [10] = systemic / clinical chemistry / alanine aminotransferase (alt/sgpt) / alanine aminotransferase (alt/sgpt) + systemic / in life observation…
# [11] = systemic / clinical chemistry / glucose / glucose
# [12] = systemic / in life observation / body weight / body weight gain + systemic / in life observation / clinical signs / emesis + systemic / in …
# [13] = systemic / in life observation / clinical signs / soft stools + systemic / in life observation / food consumption / food consumption
# [14] = group: developmental, developmental / developmental malformation / bone / incomplete ossification + systemic / in life observation / body weight / fetal weight
# [15] = group: maternal, systemic / in life observation / body weight / body weight gain + systemic / in life observation / food consumption / food consumption
# [16] = group: maternal, systemic / in life observation / body weight / body weight gain + systemic / in life observation / food consumption / food consumption + …
# [17] = systemic / in life observation / body weight / body weight gain + systemic / in life observation / food consumption / food efficiency + …
# [18] = systemic / organ weight / brain / relative to body weight
# [19] = group: developmental, developmental / developmental malformation / bone / incomplete ossification
# [20] = group: maternal, systemic / in life observation / clinical signs / erythema + systemic / in life observation / clinical signs / scabbing + systemic / …
# [21] = group: offspring, systemic / in life observation / body weight / offspring (pup) weight
# [22] = group: parental, systemic / in life observation / body weight / body weight + systemic / in life observation / body weight / body weight gain + systemic / in…
# [23] = group: cholinesterase, cholinesterase / cholinesterase / cholinesterase / cholinesterase (che)
# [24] = group: systemic, systemic / clinical chemistry / urea nitrogen / urea nitrogen
smiles,measurement,setting,value
CC(C)(C)c1ccc(CSc2cnn(C(C)(C)C)c(=O)c2Cl)cc1 [Pyridaben],LOAEL,rat [1]; [10],5 mg/kg/day
same,NEL,rat [1]; [10],0.4 mg/kg/day
same,LEL,rat [1]; systemic / urinalysis / volume / volume,1.13 mg/kg/day
same,LEL,mouse [2]; [11],4.07 mg/kg/day
same,NEL,mouse [2]; [11],< 4.07 mg/kg/day
same,LOAEL,mouse [2]; systemic / in life observation / body weight / body weight gain,13 mg/kg/day
same,NOAEL,mouse [2]; systemic / in life observation / body weight / body weight gain + systemic / clinical chemistry / alkaline phosphatase (alp/alk) / alkaline …,4.07 mg/kg/day
same,LOAEL,dog [3]; [12],4 mg/kg/day
same,NOAEL,dog [3]; [12],1 mg/kg/day
same,LEL,dog [3]; [13],0.5 mg/kg/day
same,NEL,dog [3]; [13],< 0.5 mg/kg/day
same,LEL,rat [4]; [14],30 mg/kg/day
same,LOAEL,rat [4]; [14],30 mg/kg/day
same,NEL,rat [4]; [14],13 mg/kg/day
same,NOAEL,rat [4]; [14],13 mg/kg/day
same,LEL,rat [4]; [15],13 mg/kg/day
same,LOAEL,rat [4]; [15],13 mg/kg/day
same,NEL,rat [4]; [16],5.7 mg/kg/day
same,NOAEL,rat [4]; [16],5.7 mg/kg/day
same,LOAEL,mouse [5]; [17],8.88 mg/kg/day
same,NOAEL,mouse [5]; [17],2.78 mg/kg/day
same,LEL,mouse [5]; [18],0.26 mg/kg/day
same,NEL,mouse [5]; [18],< 0.26 mg/kg/day
same,LEL,dog [6],1 mg/kg/day
same,LOAEL,dog [6],1 mg/kg/day
same,NEL,dog [6],< 1 mg/kg/day
same,NOAEL,dog [6],< 1 mg/kg/day
same,LEL,dog [7],0.5 mg/kg/day
same,LOAEL,dog [7],0.5 mg/kg/day
same,NEL,dog [7],< 0.5 mg/kg/day
same,NOAEL,dog [7],< 0.5 mg/kg/day
same,LEL,rabbit; [19],450 mg/kg/day
same,LOAEL,rabbit; [19],450 mg/kg/day
same,NEL,rabbit; [19],170 mg/kg/day
same,NOAEL,rabbit; [19],170 mg/kg/day
same,LEL,rabbit; [20],70 mg/kg/day
same,LOAEL,rabbit; [20],70 mg/kg/day
same,NEL,rabbit; [20],< 70 mg/kg/day
same,NOAEL,rabbit; [20],< 70 mg/kg/day
same,LEL,rat [8]; [21],6.31 mg/kg/day
same,LOAEL,rat [8]; [21],> 6.31 mg/kg/day
same,NEL,rat [8]; [21],2.2 mg/kg/day
same,NOAEL,rat [8]; [21],≥ 6.31 mg/kg/day
same,LOAEL,rat [8]; [22],6.31 mg/kg/day
same,NOAEL,rat [8]; [22],2.2 mg/kg/day
same,LEL,"rat [8]; group: parental, systemic / organ weight / ovary / absolute",2.41 mg/kg/day
same,NEL,"rat [8]; group: parental, systemic / organ weight / ovary / absolute + systemic / in life observation / body weight / body weight + systemic / in life observation / …",0.94 mg/kg/day
same,LEL,rat [9]; [23],27.7 mg/kg/day
same,LOAEL,rat [9]; [23],> 27.7 mg/kg/day
same,NEL,rat [9]; [23],12.8 mg/kg/day
same,NOAEL,rat [9]; [23],≥ 27.7 mg/kg/day
same,LEL,rat [9]; [24],2.3 mg/kg/day
same,NEL,rat [9]; [24],< 2.3 mg/kg/day
same,LOAEL,"rat [9]; group: systemic, systemic / in life observation / body weight / body weight gain + systemic / in life observation / food consumption / food efficiency",5.53 mg/kg/day
same,NOAEL,"rat [9]; group: systemic, systemic / in life observation / body weight / body weight gain + systemic / in life observation / food consumption / food efficiency + …",2.64 mg/kg/day
